SMILES strings stand for the structures. Like-named read-outs stand apart in the source and are kept apart here.

The subject of data set [1] is human breast cancer cell line MCF-7. In words: MTT cytotoxicity assay, breast cancer MCF-7 cells. In kind it is cell-based. To be noted: MCF-7, MTT. The protocol:
(§1) The measurement was performed using the MTT assay in cultures treated with increasing concentrations.
(§2) The effect of the compounds applied to breast cancer MCF-7 cells and breast epithelial MCF-10A cells was evaluated by measuring 3-(4,5-dimethylthiazol-2-yl)-2,5-diphenyl tetrazolium bromide (MTT) (Invitrogen, Waltham, MA, USA). All compounds were diluted in dimethylsulfoxide (DMSO) with a final DMSO concentration of 0.01% (0.01 mL/100 mL × 100 = 0.01% means 0.01 mL of DMSO to 99.99 mL of water) in all groups and untreated controls. Cells were seeded in 96-well plates at a density of 5 × 10^3 cells per well and incubated with compounds diluted in serial concentrations ranging from 0.29 µM to 150 µM. After 24, 48, and 72 h at 37 °C and 5% CO2, 10 µL of MTT (5 mg/mL) was added to each well and incubated for 4 h at 37 °C. The supernatant was then removed, and 100 µL/well of DMSO was added to dissolve any deposited formazan. The optical density was measured at 570 nm using a microplate reader (DR-200B-NM_Kasuaki, Tokyo, Japan).

Data set [2] concerns non-malignant breast epithelial cell line MCF-10A. In words: MTT cytotoxicity assay, non-malignant MCF-10A cells. In kind it is cell-based, human. The protocol:
as §1, §2
(In general: Tetrazolium assays rely on reduction of a dye to a coloured formazan, in cell work by metabolically active cells.)

For data set [3], the system named is the cells tested. Set-up: method as in doi:10.1016/j.ica.2017.03.027. To be noted: related work; cited from earlier work.
Where [4] appears, read: read-out: IC50 (Inhibitory Concentration 50%) ± SD at 24 h, 24 h.
The mark [5] stands for this setting: read-out: IC50 (Inhibitory Concentration 50%) ± SD at 48 h, 48 h.

`C=CCSC1=NN=C(C)c2ccccc2[O][Ni]([P](c2ccccc2)(c2ccccc2)c2ccccc2)[S]1` [(1), [Ni(L^1)PPh3]]: the IC50 in data set [1] (setting [4]) is 12.82 ± 0.029 µM; in data set [1] (setting [5]) it was 22.71 ± 0.016 µM; in data set [1] (read-out: IC50 (Inhibitory Concentration 50%) ± SD at 72 h, 72 h), 18.07 ± 0.017 µM; in data set [2] (setting [4]), 25.47 ± 0.031 µM; in data set [2] (setting [5]), 28.43 ± 0.021 µM.

As usually defined, the melting point is the temperature of the solid-liquid transition. As for `C/C(=N\NC(=S)SCc1ccccc1)c1ccccc1O` [H2L^2, S-Benzyl-2-(2-hydroxyphenyl-ethylidene)dithiocarbazato], the melting point came out at 145 °C.

Consider `O.O.O.O.O.O.[Cl][Ni][Cl]` [NiCl2⋅6H2O], for which the “effect on cell proliferation or cell viability” value in data set [3] is given as “no substantial effect”.

As for `C=CCSC(=S)N/N=C(\C)c1ccccc1O` [H2L^1, S-Allyl-2-(2-hydroxyphenyl-ethylidene)dithiocarbazato], the melting point worked out at 116 °C. In data set [1] (Homo sapiens, MCF7, read-out: IC50 (Inhibitory Concentration 50%) ± SD at 24 h, 24 h), the IC50 is 88.85 ± 0.097 µM. Besides, in data set [1] (Homo sapiens, MCF7, read-out: IC50 (Inhibitory Concentration 50%) ± SD at 48 h, 48 h), the IC50 was 87.73 ± 0.042 µM. Moreover, the IC50 in data set [1] (Homo sapiens, MCF7, read-out: IC50 (Inhibitory Concentration 50%) ± SD at 72 h, 72 h) worked out at 28.49 ± 0.023 µM. For the same molecule, in data set [2] (Homo sapiens, read-out: IC50 (Inhibitory Concentration 50%) ± SD at 24 h, 24 h), the IC50 was determined as 65.44 ± 0.034 µM. For the same molecule, the IC50 in data set [2] (Homo sapiens, read-out: IC50 (Inhibitory Concentration 50%) ± SD at 48 h, 48 h) came to 62.86 ± 0.013 µM. Also, in data set [2] (Homo sapiens, read-out: IC50 (Inhibitory Concentration 50%) ± SD at 72 h, 72 h), the IC50 was determined as 62.86 ± 0.025 µM.

Source of the values: publication PMC11206525, “Structural Design, Anticancer Evaluation, and Molecular Docking of Newly Synthesized Ni(II) Complexes with ONS-Donor Dithiocarbazate Ligands” (Molecules, 2024).
